± gives the expanded uncertainty stated by the source.
What was measured:
[1] = molar heat capacity at constant pressure; details: 101.33 kPa, Liquid, Small sample (50 mg) DSC
[2] = 101.33 kPa, Liquid, Vibrating tube method

BrCCCCCCCCCCCBr [1,11-dibromoundecane]
[1]
Details	molar heat capacity at constant pressure [J/K/mol]
285.15 K	389.4 ± 6.7
286.65 K	389.99 ± 6.8
288.15 K	390.59 ± 6.8
289.65 K	391.2 ± 6.8
291.15 K	391.83 ± 6.8
292.65 K	392.47 ± 6.8
294.15 K	393.12 ± 6.8
295.65 K	393.79 ± 6.8
297.15 K	394.47 ± 6.8
298.15 K	394.92 ± 6.8
298.65 K	395.16 ± 6.8
300.15 K	395.85 ± 6.9
301.65 K	396.56 ± 6.9
303.15 K	397.28 ± 6.9
304.65 K	398.01 ± 6.9
306.15 K	398.75 ± 6.9
307.65 K	399.5 ± 6.9
309.15 K	400.25 ± 6.9
310.65 K	401.02 ± 7
312.15 K	401.79 ± 7
313.65 K	402.57 ± 7
315.15 K	403.35 ± 7
316.65 K	404.15 ± 7
318.15 K	404.94 ± 7
319.65 K	405.75 ± 7
321.15 K	406.56 ± 7
322.65 K	407.37 ± 7.1
324.15 K	408.19 ± 7.1
325.65 K	409.01 ± 7.1
327.15 K	409.84 ± 7.1
328.65 K	410.67 ± 7.1
330.15 K	411.5 ± 7.1
331.65 K	412.33 ± 7.1
333.15 K	413.17 ± 7.2
334.65 K	414.01 ± 7.2
336.15 K	414.84 ± 7.2
337.65 K	415.68 ± 7.2
339.15 K	416.53 ± 7.2
340.65 K	417.37 ± 7.2
342.15 K	418.21 ± 7.2
343.65 K	419.04 ± 7.3
345.15 K	419.88 ± 7.3
346.65 K	420.72 ± 7.3
348.15 K	421.55 ± 7.3
349.65 K	422.38 ± 7.3
351.15 K	423.21 ± 7.3
352.65 K	424.04 ± 7.3
354.15 K	424.86 ± 7.4
355.15 K	425.41 ± 7.4

ClCCCCCBr [1-bromo-5-chloropentane]
[2]
Details	mass density [kg/m3]
288.15 K	1409.7 ± 1.8
298.15 K	1399.37 ± 1.8
308.15 K	1388.77 ± 1.7
318.15 K	1377.96 ± 1.7

BrCCCCCCCCBr [1,8-dibromooctane]
[1]
Details	molar heat capacity at constant pressure [J/K/mol]
288.15 K	302.23 ± 5.2
289.65 K	302.83 ± 5.2
291.15 K	303.43 ± 5.3
292.65 K	304.03 ± 5.3
294.15 K	304.63 ± 5.3
295.65 K	305.23 ± 5.3
297.15 K	305.83 ± 5.3
298.15 K	306.23 ± 5.3
298.65 K	306.43 ± 5.3
300.15 K	307.03 ± 5.3
301.65 K	307.63 ± 5.3
303.15 K	308.23 ± 5.3
304.65 K	308.82 ± 5.3
306.15 K	309.42 ± 5.4
307.65 K	310.02 ± 5.4
309.15 K	310.61 ± 5.4
310.65 K	311.21 ± 5.4
312.15 K	311.8 ± 5.4
313.65 K	312.39 ± 5.4
315.15 K	312.99 ± 5.4
316.65 K	313.58 ± 5.4
318.15 K	314.17 ± 5.4
319.65 K	314.76 ± 5.5
321.15 K	315.35 ± 5.5
322.65 K	315.94 ± 5.5
324.15 K	316.53 ± 5.5
325.65 K	317.12 ± 5.5
327.15 K	317.71 ± 5.5
328.65 K	318.3 ± 5.5
330.15 K	318.88 ± 5.5
331.65 K	319.47 ± 5.5
333.15 K	320.05 ± 5.5
334.65 K	320.64 ± 5.5
336.15 K	321.22 ± 5.6
337.65 K	321.81 ± 5.6
339.15 K	322.39 ± 5.6
340.65 K	322.97 ± 5.6
342.15 K	323.56 ± 5.6
343.65 K	324.14 ± 5.6
345.15 K	324.72 ± 5.6
346.65 K	325.3 ± 5.6
348.15 K	325.88 ± 5.6
349.65 K	326.46 ± 5.7
351.15 K	327.04 ± 5.7
352.65 K	327.62 ± 5.7
354.15 K	328.19 ± 5.7
355.15 K	328.58 ± 5.7

ClCCBr [1-bromo-2-chloroethane]
[2]
Details	mass density [kg/m3]
288.15 K	1742.45 ± 2.8
298.15 K	1726.56 ± 2.7
308.15 K	1710.57 ± 2.7
318.15 K	1693.61 ± 2.6

ClCCCCBr [1-bromo-4-chlorobutane]
[2]
Details	mass density [kg/m3]
288.15 K	1496.19 ± 0.67
298.15 K	1485.12 ± 0.66
308.15 K	1473.33 ± 0.65
318.15 K	1460.96 ± 0.64

ClCCCCCCBr [1-bromo-6-chlorohexane]
[2]
Details	mass density [kg/m3]
288.15 K	1345.17 ± 3.5
298.15 K	1336.47 ± 3.5
308.15 K	1327.17 ± 3.4
318.15 K	1316.45 ± 3.4

ClCCCBr [1-bromo-3-chloropropane]
[2]
Details	mass density [kg/m3]
288.15 K	1601.96 ± 0.78
298.15 K	1588.17 ± 0.77
308.15 K	1574.87 ± 0.75
318.15 K	1560.65 ± 0.74

BrCCCCCCCCCCCCBr [1,12-dibromododecane]
[1]
Details	molar heat capacity at constant pressure [J/K/mol]
310.65 K	432.62 ± 7.5
312.15 K	433.39 ± 7.5
313.65 K	434.17 ± 7.5
315.15 K	434.98 ± 7.5
316.65 K	435.79 ± 7.5
318.15 K	436.62 ± 7.6
319.65 K	437.46 ± 7.6
321.15 K	438.31 ± 7.6
322.65 K	439.17 ± 7.6
324.15 K	440.04 ± 7.6
325.65 K	440.91 ± 7.6
327.15 K	441.8 ± 7.7
328.65 K	442.68 ± 7.7
330.15 K	443.57 ± 7.7
331.65 K	444.47 ± 7.7
333.15 K	445.36 ± 7.7
334.65 K	446.26 ± 7.7
336.15 K	447.15 ± 7.7
337.65 K	448.04 ± 7.8
339.15 K	448.93 ± 7.8
340.65 K	449.82 ± 7.8
342.15 K	450.69 ± 7.8
343.65 K	451.57 ± 7.8
345.15 K	452.43 ± 7.8
346.65 K	453.29 ± 7.8
348.15 K	454.13 ± 7.9
349.65 K	454.96 ± 7.9
351.15 K	455.78 ± 7.9
352.65 K	456.59 ± 7.9
354.15 K	457.38 ± 7.9
355.15 K	457.9 ± 7.9

BrCCCCCCCCCBr [1,9-dibromononane]
[1]
Details	molar heat capacity at constant pressure [J/K/mol]
286.65 K	330.9 ± 5.7
288.15 K	331.44 ± 5.7
289.65 K	332 ± 5.8
291.15 K	332.56 ± 5.8
292.65 K	333.14 ± 5.8
294.15 K	333.72 ± 5.8
295.65 K	334.3 ± 5.8
297.15 K	334.9 ± 5.8
298.15 K	335.29 ± 5.8
298.65 K	335.5 ± 5.8
300.15 K	336.1 ± 5.8
301.65 K	336.72 ± 5.8
303.15 K	337.34 ± 5.8
304.65 K	337.96 ± 5.8
306.15 K	338.59 ± 5.9
307.65 K	339.23 ± 5.9
309.15 K	339.87 ± 5.9
310.65 K	340.52 ± 5.9
312.15 K	341.17 ± 5.9
313.65 K	341.83 ± 5.9
315.15 K	342.49 ± 5.9
316.65 K	343.16 ± 5.9
318.15 K	343.83 ± 6
319.65 K	344.5 ± 6
321.15 K	345.18 ± 6
322.65 K	345.86 ± 6
324.15 K	346.54 ± 6
325.65 K	347.22 ± 6
327.15 K	347.91 ± 6
328.65 K	348.6 ± 6
330.15 K	349.3 ± 6
331.65 K	349.99 ± 6.1
333.15 K	350.69 ± 6.1
334.65 K	351.39 ± 6.1
336.15 K	352.08 ± 6.1
337.65 K	352.78 ± 6.1
339.15 K	353.49 ± 6.1
340.65 K	354.19 ± 6.1
342.15 K	354.89 ± 6.2
343.65 K	355.59 ± 6.2
345.15 K	356.29 ± 6.2
346.65 K	356.99 ± 6.2
348.15 K	357.69 ± 6.2
349.65 K	358.39 ± 6.2
351.15 K	359.09 ± 6.2
352.65 K	359.79 ± 6.2
354.15 K	360.49 ± 6.2
355.15 K	360.95 ± 6.2
